Like-named read-outs stand apart in the source and are kept apart here.
Tested on: mix-culture of E. coli strains (E20, 41, 55, and 59)
Experiment: Checkerboard titration assay, phage cocktail with antibiotics
Type: cell-based
Description: A checkerboard titration assay was performed as described previously (Hsieh et al. Diagn Microbiol Infect Dis 16, 343-349 (1993)). Briefly, antibiotics (cefoperazone, vancomycin, polymyxin B, and rifampicin) were two-fold serially diluted on each column, and phage cocktail was 10-fold diluted on each row. The mix-culture of E. coli strains (E20, 41, 55, and 59) was added to 10^5 CFU/well, and the plate was incubated at 42° C. for 24 hours. The OD600 was measured with SpectaMax i3 Platfrom (Molecular Devices, San Jose, Calif.), and shown as a heat plot.
Because the selective pressure of the enrichment media is determined by antibiotic supplements in the media, the inhibition efficacy of the phage cocktail was measured in the presence of four antibiotics (cefoperazone, vancomycin, polymyxin B, and rifampicin) used in BB and PB. […] A checkerboard assay was performed to examine the antimicrobial activity of the phage cocktail in combination with antibiotics.

[1] = Escherichia coli, antibiotic without the phage cocktail, 42° C., 24 hours, read-out: MIC
[2] = antibiotic without the phage cocktail, 42° C., 24 hours

| Molecule | MIC [1] | MIC [2] | MIC (Escherichia coli, 24 h) |
| --- | --- | --- | --- |
| CCN1CCN(C(=O)N[C@@H](C(=O)N[C@@H]2C(=O)N3C(C(=O)O)=C(CSc4nnnn4C)CS[C@H]23)c2ccc(O)cc2)C(=O)C1=O [cefoperazone] | > 512 mg/L | > 512 mg/L | – |
| CO[C@H]1/C=C/O[C@@]2(C)Oc3c(C)c(O)c4c(O)c(c(/C=N/N5CCN(C)CC5)c(O)c4c3C2=O)NC(=O)/C(C)=C\C=C\[C@H](C)[C@H](O)[C@@H](C)[C@@H](O)[C@@H](C)[C@H](OC(C)=O)[C@@H]1C [rifampicin] | 32 mg/L | – | – |
| CN[C@H](CC(C)C)C(=O)N[C@H]1C(=O)N[C@@H](CC(N)=O)C(=O)N[C@H]2C(=O)N[C@H]3C(=O)N[C@H](C(=O)N[C@H](C(=O)O)c4cc(O)cc(O)c4-c4cc3ccc4O)[C@H](O)c3ccc(c(Cl)c3)Oc3cc2cc(c3O[C@@H]2O[C@H](CO)[C@@H](O)[C@H](O)[C@H]2O[C@H]2C[C@](C)(N)[C@H](O)[C@H](C)O2)Oc2ccc(cc2Cl)[C@H]1O [vancomycin] | – | – | 64 mg/L |
| polymyxin B | – | 4 mg/L | – |
